Experimental data reported in ChEMBL document CHEMBL1201862, “PubChem BioAssay data set” (2004).
Activity calls are given as the source filed them.

Experiments:
[1] = target: FAD-linked sulfhydryl oxidase ALR (Homo sapiens, UniProt P55789); test: ALR-catalysed DTT oxidation blockers – biochemical, H2O2 detection, luminescence, cherry-pick, dose response (AID 493248)
Aminopeptidase N = target: T1, Aminopeptidase N (Plasmodium falciparum FcB1/Columbia, UniProt O96935); test: malaria alanyl aminopeptidase activity blockers – biochemical, fluorogenic H-Leu-NHMec substrate, 1536-well (AID 1445); set-up: species or system Plasmodium falciparum 3D7, 3D7
T1 sequence (O96935 whole entry): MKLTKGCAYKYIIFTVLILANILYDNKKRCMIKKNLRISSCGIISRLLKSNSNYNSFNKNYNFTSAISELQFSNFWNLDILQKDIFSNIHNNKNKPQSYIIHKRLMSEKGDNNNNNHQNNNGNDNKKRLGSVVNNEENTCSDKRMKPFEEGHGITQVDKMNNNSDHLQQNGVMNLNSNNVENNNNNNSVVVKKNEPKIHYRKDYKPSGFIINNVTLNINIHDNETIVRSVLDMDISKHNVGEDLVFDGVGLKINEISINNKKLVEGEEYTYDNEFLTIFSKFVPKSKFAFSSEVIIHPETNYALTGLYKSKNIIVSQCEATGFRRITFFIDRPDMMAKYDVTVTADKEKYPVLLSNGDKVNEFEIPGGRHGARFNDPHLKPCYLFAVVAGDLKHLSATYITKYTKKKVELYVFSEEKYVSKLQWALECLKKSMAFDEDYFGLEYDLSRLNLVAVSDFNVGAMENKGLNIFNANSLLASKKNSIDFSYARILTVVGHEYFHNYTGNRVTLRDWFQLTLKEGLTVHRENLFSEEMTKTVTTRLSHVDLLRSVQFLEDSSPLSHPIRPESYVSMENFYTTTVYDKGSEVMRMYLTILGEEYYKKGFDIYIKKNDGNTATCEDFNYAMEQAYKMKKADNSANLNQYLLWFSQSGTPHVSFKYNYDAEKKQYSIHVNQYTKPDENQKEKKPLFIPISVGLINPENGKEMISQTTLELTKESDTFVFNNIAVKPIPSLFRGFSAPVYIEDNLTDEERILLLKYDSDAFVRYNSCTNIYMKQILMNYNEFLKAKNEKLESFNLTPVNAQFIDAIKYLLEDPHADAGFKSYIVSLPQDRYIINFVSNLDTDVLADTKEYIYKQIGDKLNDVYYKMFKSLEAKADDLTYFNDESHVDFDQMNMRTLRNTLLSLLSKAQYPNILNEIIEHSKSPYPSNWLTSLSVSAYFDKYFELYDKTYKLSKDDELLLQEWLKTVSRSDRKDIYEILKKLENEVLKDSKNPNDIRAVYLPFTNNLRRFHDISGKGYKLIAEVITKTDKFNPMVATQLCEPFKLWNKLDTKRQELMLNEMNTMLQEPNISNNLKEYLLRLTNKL

[2] = target: T2, Heat shock factor protein 1 (Mus musculus, UniProt P38532); test: enhancement of HSF1-driven luciferase signal – cell-based, NIH3T3, luminescence, dose retest, confirmation (AID 435004); assay type: functional;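 also: stress induced by proteasome inhibitor MG132 added 30 min after compound; luciferase reporter driven by HSF1 response element in NIH3T3 cells; actives raise luminescence as potentiators of the MG132 stress response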
T2 sequence (P38532 whole entry): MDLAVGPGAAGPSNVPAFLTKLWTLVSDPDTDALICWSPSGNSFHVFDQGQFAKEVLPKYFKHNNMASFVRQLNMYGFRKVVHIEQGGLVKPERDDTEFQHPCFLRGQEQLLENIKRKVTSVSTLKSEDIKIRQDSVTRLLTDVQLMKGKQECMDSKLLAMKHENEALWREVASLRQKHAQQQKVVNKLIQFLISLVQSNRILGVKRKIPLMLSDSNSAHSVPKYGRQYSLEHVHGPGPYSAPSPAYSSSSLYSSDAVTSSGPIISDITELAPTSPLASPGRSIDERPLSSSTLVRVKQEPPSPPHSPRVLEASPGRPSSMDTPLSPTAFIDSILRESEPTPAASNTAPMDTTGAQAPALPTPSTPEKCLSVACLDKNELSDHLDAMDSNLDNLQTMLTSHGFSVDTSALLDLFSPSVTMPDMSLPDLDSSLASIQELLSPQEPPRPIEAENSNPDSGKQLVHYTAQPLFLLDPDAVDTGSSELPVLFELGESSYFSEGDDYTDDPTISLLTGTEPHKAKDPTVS

[3] = target: Induced myeloid leukemia cell differentiation protein Mcl-1 (Homo sapiens, UniProt Q07820); assay type: functional
[4] = Trypanosoma cruzi growth suppression in host cells – NIH3T3 host cells, beta-gal luminescence, confirmation (AID 2044); assay type: functional, cell-based;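 also: intracellular parasites grown in NIH/3T3 mouse fibroblasts as host cells; luminescent beta-galactosidase reporter signal from transgenic T. cruzi replicating inside host cells; inhibitors lower the luminescence signal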
[5] = NIH3T3 cell viability loss – ATP luminescence, mouse fibroblasts, counter-screen, dose response (AID 2010); assay type: functional, cell-based;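 also: cells exposed to compound for about 90 hours before reading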
Nonstructural protein 1 = Nonstructural protein 1 (Influenza A virus, UniProt Q194T2); assay type: functional, Influenza A virus (A/California/07/2009(H1N1))
INS1 = test: INS-1E survival protection against cytokine death – cell-based, luminescence, retest, dose response (AID 449756); assay type: functional; details: Rattus norvegicus;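 also: cell death triggered by IL-1 beta plus TNF-alpha plus IFN-gamma mixture; protective hits raise ATP signal compared with cytokine alone wells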
[6] = reduction of Shn3 3'UTR-driven luciferase in osteoblasts – cell-based, Clone20 osteoblasts, firefly luciferase, cherry-picked, dose response (AID 624132); assay type: functional;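 also: firefly luciferase luminescence from reporter carrying the Shn3 3'UTR in osteoblasts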
[7] = loss of viability in HepG2 cells – cell-based, CellTiter-Glo, cherry-picked, cytotoxicity control for Shn3 inhibitor project, dose response (AID 624134); assay type: functional
[8] = non-specific 3'UTR reporter inhibition in Clone20-Shn3RL – cell-based, Renilla luciferase, cherry-picked, counter-screen for Shn3 inhibitor project, dose response (AID 624133); assay type: functional
[9] = target: T3, Replicative DNA helicase DnaB (Mycobacterium tuberculosis, UniProt P9WMR3); test: DnaB intein splicing inhibitors, dose response, biochemical, cell-free fluorescence (AID 449749); assay type: functional
T3 sequence (P9WMR3 whole entry): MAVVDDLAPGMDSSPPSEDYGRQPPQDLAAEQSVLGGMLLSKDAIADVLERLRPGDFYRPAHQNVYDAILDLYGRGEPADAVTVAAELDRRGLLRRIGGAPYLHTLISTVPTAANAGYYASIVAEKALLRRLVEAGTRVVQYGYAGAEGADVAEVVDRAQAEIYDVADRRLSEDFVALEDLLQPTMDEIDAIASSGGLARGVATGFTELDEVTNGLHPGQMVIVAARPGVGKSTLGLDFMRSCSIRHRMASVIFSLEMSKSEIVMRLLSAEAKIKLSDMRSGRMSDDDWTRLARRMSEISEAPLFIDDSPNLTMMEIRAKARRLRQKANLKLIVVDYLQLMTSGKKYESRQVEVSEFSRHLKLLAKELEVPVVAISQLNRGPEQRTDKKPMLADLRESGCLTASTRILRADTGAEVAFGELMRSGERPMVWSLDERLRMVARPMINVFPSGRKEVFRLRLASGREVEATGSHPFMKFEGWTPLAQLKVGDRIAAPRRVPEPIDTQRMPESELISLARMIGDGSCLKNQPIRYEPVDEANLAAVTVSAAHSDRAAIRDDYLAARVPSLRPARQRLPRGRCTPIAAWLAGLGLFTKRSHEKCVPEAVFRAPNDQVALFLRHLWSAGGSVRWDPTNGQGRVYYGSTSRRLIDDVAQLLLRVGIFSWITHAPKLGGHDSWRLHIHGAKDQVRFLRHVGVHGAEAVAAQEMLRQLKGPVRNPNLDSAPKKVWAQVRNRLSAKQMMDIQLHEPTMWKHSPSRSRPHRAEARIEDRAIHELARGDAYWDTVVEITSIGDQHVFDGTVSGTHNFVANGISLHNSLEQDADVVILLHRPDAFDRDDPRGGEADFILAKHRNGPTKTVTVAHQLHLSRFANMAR

Protein RecA = target: T4, Protein RecA (Mycobacterium tuberculosis, UniProt P9WHJ3); test: Fluorescence Cell-Free Homogeneous Dose Retest to Identify Inhibitors of RecA-Intein Splicing Activity. [Related pubchem assays (depositor defined):AID2097, AID2223, AID489010, AID492950]; assay type: functional
T4 sequence (P9WHJ3 whole entry): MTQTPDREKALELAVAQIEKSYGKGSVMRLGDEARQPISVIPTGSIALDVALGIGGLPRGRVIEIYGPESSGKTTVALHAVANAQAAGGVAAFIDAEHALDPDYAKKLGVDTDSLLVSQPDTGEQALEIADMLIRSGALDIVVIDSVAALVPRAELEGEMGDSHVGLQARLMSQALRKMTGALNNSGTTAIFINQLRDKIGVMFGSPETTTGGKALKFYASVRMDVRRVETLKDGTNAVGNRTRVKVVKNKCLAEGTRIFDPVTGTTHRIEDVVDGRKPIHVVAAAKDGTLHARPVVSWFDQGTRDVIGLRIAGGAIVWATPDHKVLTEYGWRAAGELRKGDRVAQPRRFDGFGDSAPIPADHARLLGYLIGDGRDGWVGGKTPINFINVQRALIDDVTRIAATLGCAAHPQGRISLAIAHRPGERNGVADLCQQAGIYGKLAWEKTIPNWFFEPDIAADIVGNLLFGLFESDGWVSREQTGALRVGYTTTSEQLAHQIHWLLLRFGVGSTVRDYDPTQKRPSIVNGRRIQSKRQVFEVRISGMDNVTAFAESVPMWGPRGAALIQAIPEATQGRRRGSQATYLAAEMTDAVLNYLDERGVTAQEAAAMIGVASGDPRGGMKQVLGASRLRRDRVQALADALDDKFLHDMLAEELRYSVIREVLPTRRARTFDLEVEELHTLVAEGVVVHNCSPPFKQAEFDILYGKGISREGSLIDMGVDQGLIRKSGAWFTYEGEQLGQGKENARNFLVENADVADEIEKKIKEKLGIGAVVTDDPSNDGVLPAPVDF

[10] = intracellular Trypanosoma cruzi inhibitors in host cells – cell-based, plate reader, cherry-pick samples, set 3, dose response (AID 651818); assay type: functional;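 also: compounds incubated with infected cells for about four days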

FAD-linked sulfhydryl oxidase ALR, sequence (P55789 whole entry): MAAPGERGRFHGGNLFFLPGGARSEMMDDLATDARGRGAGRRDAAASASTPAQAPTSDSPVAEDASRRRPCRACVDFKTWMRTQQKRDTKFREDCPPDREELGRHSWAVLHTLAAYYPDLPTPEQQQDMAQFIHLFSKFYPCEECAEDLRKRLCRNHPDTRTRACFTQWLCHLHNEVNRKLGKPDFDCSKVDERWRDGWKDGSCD
Induced myeloid leukemia cell differentiation protein Mcl-1, sequence (Q07820 whole entry): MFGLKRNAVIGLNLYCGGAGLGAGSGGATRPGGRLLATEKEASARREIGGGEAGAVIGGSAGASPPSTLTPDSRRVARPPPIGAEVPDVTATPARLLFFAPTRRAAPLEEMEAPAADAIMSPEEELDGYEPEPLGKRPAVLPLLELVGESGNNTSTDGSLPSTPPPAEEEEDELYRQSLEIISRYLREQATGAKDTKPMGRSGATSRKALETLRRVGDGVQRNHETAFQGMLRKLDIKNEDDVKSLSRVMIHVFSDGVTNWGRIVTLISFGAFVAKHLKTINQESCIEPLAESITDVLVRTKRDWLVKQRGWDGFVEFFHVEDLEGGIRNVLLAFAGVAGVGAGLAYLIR
Nonstructural protein 1, sequence (Q194T2 whole entry): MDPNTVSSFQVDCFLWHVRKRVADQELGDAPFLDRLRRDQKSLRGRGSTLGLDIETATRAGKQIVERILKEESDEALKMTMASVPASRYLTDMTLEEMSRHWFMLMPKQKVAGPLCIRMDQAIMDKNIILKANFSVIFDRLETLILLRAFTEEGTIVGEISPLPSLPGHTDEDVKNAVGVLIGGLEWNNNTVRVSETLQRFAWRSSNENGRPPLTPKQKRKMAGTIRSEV

In the case of `Cc1ccc(NC2CCCN(C(=O)c3cn4cc(Cl)ccc4n3)C2)cc1C` (centres undefined), the AC50 [1] is reported as 1.01 µM (active).
For `COc1ccc(C2CC(c3ccccc3)=NN2c2ccccc2)c(C(=O)O)c1OC` (centres undefined), the AC50 [1] was 4.74 µM (active).
In the case of `CCO/C(O)=C1/C(CC)=Nc2ccccc2N=C1NS(=O)(=O)c1cc(Br)ccc1Br`, the IC50 (Aminopeptidase N) is reported as 30.3 µM (active).
For `O=C(NN/C=C1\C(=O)N(c2ccccc2Cl)C(=O)c2ccccc21)c1cccnc1`, the IC50 (Aminopeptidase N) was 32.6 µM (active).
With `O=C(CCC1CCCN(C(=O)c2ccc3cc[nH]c3c2)C1)NCc1ccc(F)c(F)c1` (centres undefined) the IC50 (Aminopeptidase N) was 33.1 µM (active) and the EC50 [2] was 38.9 µM (active).
With `O=C(CCN1CCOCC1)Nc1c(O)nc2ccc(Br)cc2c1-c1ccccc1` the IC50 (Aminopeptidase N) was 93.9 µM (active).
In the case of `O=C1N/C(=N\c2ccccc2)S/C1=C\C=C\c1ccco1`, the IC50 [3] is reported as 12.2 µM (active).
With `Cc1ccc(C(=O)NCCSc2snnc2C)cc1` the AC50 [1] was 0.117 µM (active).
With `CCN(CC)c1ccc(CNc2nc3ccccc3n2CCN2CCCCC2)cc1` the EC50 [4] was 3.28 µM (active), the EC50 [5] was 7.56 µM (active) and the IC50 (Nonstructural protein 1) was 27 µM (active). For the same molecule, the AC50 [1] was 0.68 µM (active), the AC50 (INS1) was 7.16 µM (active) and the AC50 [6] was 2.64 µM (active). The AC50 [7] was 10.2 µM (active) and the AC50 [8] was 1.51 µM (active).
For `CCc1n[nH]c(C(=O)N2CCCC(Nc3cccc(F)c3)C2)c1C` (centres undefined), the AC50 [1] was 2.88 µM (active).
In the case of `Cc1ccc(S(=O)(=O)Nc2cc(C)c(O)cc2C)cc1`, the AC50 [1] is reported as 3.11 µM (active).
In the case of `Cc1ccc(N2C(=O)NC(=O)/C(=C/c3cnc(-c4ccccc4)nc3)C2=O)cc1C`, the IC50 [3] is reported as 1.66 µM (active).
In the case of `COc1ccccc1C(NC(C)=O)c1c(O)ccc2ccc(O)cc12` (centres undefined), the AC50 [1] is reported as 2.44 µM (active), the AC50 [9] is reported as > 380 µM (inactive) and the EC50 (Protein RecA) is reported as 2.89 µM (active).
With `C[C@@H]1CCCCO[C@H](CN(C)Cc2ccccc2)[C@@H](C)CN([C@H](C)CO)C(=O)c2cc(NC(=O)Nc3ccc(C(F)(F)F)cc3)ccc2O1` the AC50 [10] was 5.97 µM (active).
With `C[C@@H]1CN([C@H](C)CO)C(=O)c2cc(NS(=O)(=O)c3ccc(Cl)cc3)ccc2O[C@H]1CN(C)Cc1ccc(Cl)c(Cl)c1` the AC50 [10] was 1.81 µM (active).
With `C[C@@H]1CCCCO[C@H](CN(C)C(=O)Nc2cccc3ccccc23)[C@@H](C)CN([C@H](C)CO)C(=O)c2cc(NS(=O)(=O)c3ccc(Cl)cc3)ccc2O1` the AC50 [10] was 3.37 µM (active).
With `COc1ccc(S(=O)(=O)Nc2ccc3c(c2)CC(=O)N([C@H](C)CO)C[C@@H](C)[C@@H](CN(C)Cc2ccc(-c4ccccc4)cc2)O3)cc1` the AC50 [10] was 2.35 µM (active).
For `C[C@@H]1CN([C@@H](C)CO)C(=O)c2cccc(NS(=O)(=O)c3ccccc3)c2O[C@@H]1CN(C)Cc1ccc(-c2ccccc2)cc1`, the AC50 [10] was 3.3 µM (active).
In the case of `C[C@H]1CN([C@@H](C)CO)C(=O)c2cccc(NC(=O)c3cnccn3)c2O[C@H]1CN(C)Cc1ccc(C(=O)Nc2ccccc2N)cc1`, the AC50 [10] is reported as 0.803 µM (active).
